One may read the IC50 as the concentration that gives 50% inhibition.

What all share (assay type): cell-based, human
Experiment [1] relates to phosphorylation of RSK1(S380) (the downstream target of ERK1/2). In words: Phospho-RSK1(S380) ELISA assay in HT-29 cells. As to conditions: Homo sapiens, HT-29, HT29 cells, phospho-RSK1(S380); read-out: Mechanistic Cell Assay RSK1 Phos HT29 IC50. In outline:
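HT-29 colorectal carcinoma cells (B-RafV600E), plated overnight at 37° C./5% CO2, were treated with compound dilutions for 2 h. Lysates were analysed by phospho-RSK1(Ser380) sandwich ELISA with absorbance at 450 nm. IC50 came from a sigmoidal variable-slope dose-response fit.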
(An ELISA detects its analyte on a solid surface through an enzyme-linked reagent.)

Experiment [2] deals with HT-29 (colorectal carcinoma, B-RafV600E) cells. Briefly: Cell proliferation (Alamar Blue) assay, HT-29. Conditions: Homo sapiens, HT-29, HT29 cells. In outline: (§1)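 IC50 values derive from variable-slope sigmoidal fits of Alamar Blue fluorescence (540 nm excitation, 590 nm emission, 1-3 h dye incubation). Compound treatment ran 72 h at 37° C./5% CO2 over roughly 0.0005-10 uM in 3-fold steps, on cells plated at 5000/well and pre-incubated 16-24 h.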

Experiment [3] has as its system HCT116 (colorectal carcinoma, K Ras G13D) cells. Briefly: Cell proliferation (Alamar Blue) assay, HCT116. As to conditions: Homo sapiens, HCT-116, HCT116 cells. In outline: as §1

As to `CNC(=O)c1ccc(Nc2ncc(C)c(-n3ccc(C(=O)NC(CO)c4cccc(Cl)c4)c3)n2)cc1` (stereo not drawn) [Example 196, N-(1-(3-chlorophenyl)-2-hydroxyethyl)-1-(5-methyl-2-((4-(methylcarbamoyl)phenyl)amino)pyrimidin-4-yl)-1H-pyrrole-3-carboxamide], the IC50 in experiment [1], in experiment [2] and in experiment [3] was 500 to 2500 nM each time.

With `CCC(C)Nc1ncc(C)c(-n2ccc(C(=O)N[C@H](CO)c3ccc(F)c(Cl)c3)c2)n1` (stereo partly drawn) [Example 197, 1-(2-(sec-butylamino)-5-methylpyrimidin-4-yl)-N-((S)-1-(3-chloro-4-fluorophenyl)-2-hydroxyethyl)-1H-pyrrole-3-carboxamide], the IC50 in experiment [1] is 250 to 500 nM; in experiment [2] it was 500 to 2500 nM; in experiment [3], more than 2500 nM.

In the case of `Cc1cnc(Nc2ccc3c(c2)CC(=O)N3)nc1-n1ccc(C(=O)NC(CO)c2cccc(Cl)c2)c1` (stereo not drawn) [Example 198, N-(1-(3-chlorophenyl)-2-hydroxyethyl)-1-(5-methyl-2-((2-oxoindolin-5-yl)amino)pyrimidin-4-yl)-1H-pyrrole-3-carboxamide], the half-inhibitory concentration (IC50) in experiment [1], in experiment [2] and in experiment [3] was 500 to 2500 nM throughout.

Consider `Cc1cnc(NC2CCCN(C)C2)nc1-n1ccc(C(=O)NC(CO)c2cccc(Cl)c2)c1` (stereo not drawn) [Example 199, N-(1-(3-chlorophenyl)-2-hydroxyethyl)-1-(5-methyl-2-((1-methylpiperidin-3-yl)amino)pyrimidin-4-yl)-1H-pyrrole-3-carboxamide], for which the IC50 in experiment [1] was 500 to 2500 nM; in experiment [2] it was 500 to 2500 nM; in experiment [3], more than 2500 nM.

`Cc1cnc(NC2CCCCC2O)nc1-n1ccc(C(=O)NC(CO)c2ccc(F)c(Cl)c2)c1` (stereo not drawn) [Example 202, N-(1-(3-chloro-4-fluorophenyl)-2-hydroxyethyl)-1-(2-((2-hydroxycyclohexyl)amino)-5-methylpyrimidin-4-yl)-1H-pyrrole-3-carboxamide]: the IC50 in experiment [1] is more than 2500 nM; in experiment [2], 500 to 2500 nM; in experiment [3], more than 2500 nM.

As to `Cc1cnc(N[C@H]2CCOC2)nc1-n1ccc(C(=O)NC(CO)c2ccc(F)cc2)c1` (stereo partly drawn) [Example 204, N-(1-(4-fluorophenyl)-2-hydroxyethyl)-1-(5-methyl-2-(((S)-tetrahydrofuran-3-yl)amino)pyrimidin-4-yl)-1H-pyrrole-3-carboxamide], the IC50 in experiment [1] was 500 to 2500 nM; in experiment [2], 500 to 2500 nM; in experiment [3] it was more than 2500 nM.

As to `Cc1cnc(Nc2ccc(N3CCOCC3)cc2)nc1-n1ccc(C(=O)NC(CO)c2cccc(Cl)c2)c1` (stereo not drawn) [Example 205, N-(1-(3-chlorophenyl)-2-hydroxyethyl)-1-(5-methyl-2-((4-morpholinophenyl)amino)pyrimidin-4-yl)-1H-pyrrole-3-carboxamide], the half-inhibitory concentration (IC50) in experiment [1] is 100 to 250 nM; in experiment [2], 100 to 250 nM; in experiment [3], 250 to 500 nM.

`NCC(NC(=O)c1ccn(-c2ccnc(Nc3ccc(F)cc3)c2)c1)c1ccccc1` (stereo not drawn) [Example 206, N-(2-amino-1-phenylethyl)-1-(2-((4-fluorophenyl)amino)pyridin-4-yl)-1H-pyrrole-3-carboxamide]: the half-maximal inhibitory concentration (IC50) in experiment [1] is 500 to 2500 nM; in experiment [2], 500 to 2500 nM; in experiment [3], more than 2500 nM.

Turning to `Cc1cccc([C@@H](CO)NC(=O)c2ccn(-c3nc(N[C@H]4CCOC4)ncc3C)c2)n1` [Example 207, N-((S)-2-hydroxy-1-(6-methylpyridin-2-yl)ethyl)-1-(5-methyl-2-(((S)-tetrahydrofuran-3-yl)amino)pyrimidin-4-yl)-1H-pyrrole-3-carboxamide], the IC50 in experiment [1] was 500 to 2500 nM; in experiment [2], 250 to 500 nM; in experiment [3], more than 2500 nM.

Take `Cc1cnc(N[C@H]2CCOC2)nc1-n1ccc(C(=O)N(C)C(CO)c2cccc(Cl)c2)c1` (stereo partly drawn) [Example 212, N-(1-(3-chlorophenyl)-2-hydroxyethyl)-N-methyl-1-(5-methyl-2-(((S)-tetrahydrofuran-3-yl)amino)pyrimidin-4-yl)-1H-pyrrole-3-carboxamide]: the half-maximal inhibitory concentration (IC50) is 500 to 2500 nM in experiment [1], 500 to 2500 nM in experiment [2] and more than 2500 nM in experiment [3].

Take `Cc1cnc(Nc2ccc(F)c(N3CCNCC3)c2)nc1-n1ccc(C(=O)NC(CO)c2cccc(Cl)c2)c1` (stereo not drawn) [Example 213, N-(1-(3-chlorophenyl)-2-hydroxyethyl)-1-(2-((4-fluoro-3-(piperazin-1-yl)phenyl)amino)-5-methylpyrimidin-4-yl)-1H-pyrrole-3-carboxamide]: the half-inhibitory concentration (IC50) in experiment [1] fell in the range of 250 to 500 nM; in experiment [2], 100 to 250 nM; in experiment [3], 250 to 500 nM.

`Cc1cnc(NC2CCNCC2)nc1-n1cnc(C(=O)NC(CO)c2cccc(Cl)c2)c1` (stereo not drawn) [Example 214, N-(1-(3-chlorophenyl)-2-hydroxyethyl)-1-(5-methyl-2-(piperidin-4-ylamino)pyrimidin-4-yl)-1H-imidazole-4-carboxamide]: the IC50 in experiment [1], in experiment [2] and in experiment [3] was more than 2500 nM throughout.

For the molecule `Cc1cnc(Nc2ccc(C3CCNCC3)cc2)nc1-n1ccc(C(=O)NC(CO)c2cccc(Cl)c2)c1` (stereo not drawn) [Example 215, N-(1-(3-chlorophenyl)-2-hydroxyethyl)-1-(5-methyl-2-((4-(piperidin-4-yl)phenyl)amino)pyrimidin-4-yl)-1H-pyrrole-3-carboxamide], the IC50 in experiment [1] is 500 to 2500 nM; in experiment [2] it was 250 to 500 nM; in experiment [3] it was more than 2500 nM.

`Cc1cnc(Nc2ccc(C3CCNCC3)c(F)c2)nc1-n1ccc(C(=O)NC(CO)c2cccc(Cl)c2)c1` (stereo not drawn) [Example 216, N-(1-(3-chlorophenyl)-2-hydroxyethyl)-1-(2-((3-fluoro-4-(piperidin-4-yl)phenyl)amino)-5-methylpyrimidin-4-yl)-1H-pyrrole-3-carboxamide]: the IC50 in experiment [1] was in the range of 500 to 2500 nM; in experiment [2] it was 250 to 500 nM; in experiment [3], 500 to 2500 nM.

For the molecule `CC[C@@H](CO)Nc1ncc(C)c(-n2ccc(C(=O)N[C@H](CO)c3cccc(Cl)c3)c2)n1` [Example 219, N-((S)-1-(3-chlorophenyl)-2-hydroxyethyl)-1-(2-(((S)-1-hydroxybutan-2-yl)amino)-5-methylpyrimidin-4-yl)-1H-pyrrole-3-carboxamide], the figures for the IC50 in experiment [1], in experiment [2] and in experiment [3] were 250 to 500 nM, 100 to 250 nM and 500 to 2500 nM, respectively.

With `CC[C@@H](CO)Nc1ncc(C)c(-n2cnc(C(=O)N[C@H](CO)c3cccc(Cl)c3)c2)n1` [Example 220, N-((S)-1-(3-chlorophenyl)-2-hydroxyethyl)-1-(2-(((S)-1-hydroxybutan-2-yl)amino)-5-methylpyrimidin-4-yl)-1H-imidazole-4-carboxamide], the 50% inhibitory concentration (IC50) in experiment [1] fell in the range of 250 to 500 nM; in experiment [2], 100 to 250 nM; in experiment [3] it was 500 to 2500 nM.

For the molecule `Cc1cnc(N[C@H]2CCOC2)nc1-n1cnc(C(=O)NCc2cccc(Cl)c2CO)c1` [Example 270], the IC50 in experiment [1] is 100 to 250 nM; in experiment [2], not above 100 nM; in experiment [3] it was not above 100 nM.

Regarding `Cc1cnc(NC2CCOCC2)nc1-n1cnc(C(=O)N[C@@H](CN)c2cc(F)cc(Cl)c2)c1` [Example 276, (R)-N-(2-amino-1-(3-chloro-5-fluorophenyl)ethyl)-1-(5-methyl-2-((tetrahydro-2H-pyran-4-yl)amino)pyrimidin-4-yl)-1H-imidazole-4-carboxamide], the IC50 in experiment [1] is 100 to 250 nM; in experiment [2] it was 250 to 500 nM; in experiment [3], 500 to 2500 nM.

On to `Cc1cnc(Nc2ccnn2C)nc1-n1cnc(C(=O)N[C@H](CO)c2cccc(Cl)c2)c1` [Example 277, (S)-N-(1-(3-chlorophenyl)-2-hydroxyethyl)-1-(5-methyl-2-((1-methyl-1H-pyrazol-5-yl)amino)pyrimidin-4-yl)-1H-imidazole-4-carboxamide], for which the concentration for half-maximal inhibition (IC50) in experiment [1] is 500 to 2500 nM; in experiment [2], 250 to 500 nM; in experiment [3] it was 250 to 500 nM.

On to `Cc1cnc(Nc2ccnn2C)nc1-n1cnc(C(=O)N[C@H](CN)c2cccc(Cl)c2)c1` [Example 280, (S)-N-(2-amino-1-(3-chlorophenyl)ethyl)-1-(5-methyl-2-((1-methyl-1H-pyrazol-5-yl)amino)pyrimidin-4-yl)-1H-imidazole-4-carboxamide], for which the IC50 in experiment [1], in experiment [2] and in experiment [3] was not above 100 nM in each case.

As for `Cc1cnc(NC2CCOCC2)nc1-n1cnc(C(=O)NCc2nccs2)c1` [Example 281, 1-(5-methyl-2-((tetrahydro-2H-pyran-4-yl)amino)pyrimidin-4-yl)-N-(thiazol-2-ylmethyl)-1H-imidazole-4-carboxamide], the figures for the IC50 in experiment [1], in experiment [2] and in experiment [3] were 100 to 250 nM, 500 to 2500 nM and more than 2500 nM, respectively.

In the case of `Cc1cnc(NC2CCOCC2)nc1-n1cnc(C(=O)NCc2ccccc2CN)c1` [Example 283, N-(2-(aminomethyl)benzyl)-1-(5-methyl-2-((tetrahydro-2H-pyran-4-yl)amino)pyrimidin-4-yl)-1H-imidazole-4-carboxamide], the figures for the IC50 in experiment [1], in experiment [2] and in experiment [3] were 500 to 2500 nM, 500 to 2500 nM and more than 2500 nM, respectively.

As to `Cc1cnc(NC2CCOCC2)nc1-n1cnc(C(=O)NCc2sccc2CO)c1` [Example 284, N-((3-(hydroxymethyl)thiophen-2-yl)methyl)-1-(5-methyl-2-((tetrahydro-2H-pyran-4-yl)amino)pyrimidin-4-yl)-1H-imidazole-4-carboxamide], the half-maximal inhibitory concentration (IC50) in experiment [1] lay within 500 to 2500 nM; in experiment [2] it was 250 to 500 nM; in experiment [3], 500 to 2500 nM.

Source of the values: US11925629B2, “Heterocyclic inhibitors of ERK1 and ERK2 and their use in the treatment of cancer” (Asana Biosciences, LLC, priority 2015, dated 2024).
